Experimental findings from article PMC4503722, “Novel Phenotypic Outcomes Identified for a Public Collection of Approved Drugs from a Publicly Accessible Panel of Assays” (PLoS ONE, 2015) are described below.

Read-outs that look alike come from different tables or passages of the source.

Holding throughout (assay): cells
The subject of one assay is SNU-C1. The assay is classed as cell-based.
The next assay concerns DLD-1. The assay is classed as cell-based.
Another assay has as its system INS-1E cells. The assay is classed as cell-based, rat.
Assay [1] deals with HCT116 cells treated with a GSK3β inhibitor. The assay is classed as cell-based.
For the next assay, the system named is SW480. The assay is classed as cell-based.
In the next assay the test system is NCI-H716 cells. The assay is classed as cell-based, Human.
The test system of a further assay is HCT116. The assay is classed as cell-based.
Another assay deals with HeLa cells. The assay is classed as cell-based. To be noted: for EC50: read-out: CellCycle G2/M.
The subject of a further assay is RKO. The assay is classed as cell-based. To be noted: RKO, read-out: Basal_Viability ATP RKO.
The test system of assay [2] is endothelial tube formation in co-cultures of ECFCs and ADSCs treated with VEGF. The assay is classed as cell-based, human.
Assay [3] relates to nuclear β-catenin in C2C12 cells. The assay is classed as cell-based.
In a further assay the test system is Colo320. The assay is classed as cell-based. Particulars: Homo sapiens, COLO 320; read-out: Basal_Viability ATP Colo 320.
Setting [4] is: Homo sapiens, DLD-1, 72 h, Table 2, 72 h, Cell TiterGlo, non-adherent, 20 coded, read-out: DLD-1 viab. IC50.
Where [5] appears, read: Homo sapiens, DLD-1, basal, DLD-1, read-out: Basal_Viability ATP DLD-1.
[6] abbreviates: Rattus norvegicus, INS-1E, read-out: Ins. sec. EC50.
The mark [7] stands for this setting: Homo sapiens, NCI-H716, read-out: GLP1 sec. EC50.
The mark [8] stands for this setting: Homo sapiens, HeLa, S2 Table, HeLa, 20 = no response at highest concentration.
The mark [9] stands for this setting: Homo sapiens; read-out: Anti-Angio IC50.
Where [10] appears, read: Mus musculus, C2C12, read-out: Wnt Pathway.
The mark [11] stands for this setting: Rattus norvegicus, IC50 / EC50, INS-1E, read-out: Insulin Secretion.
Where [12] appears, read: Homo sapiens, HCT-116, GSK3b inhibitor pretreated, read-out: GSK3b inh pretreated_Viability ATP HCT116.
Setting [13] is: Homo sapiens, IC50 / EC50, NCI-H716, read-out: GLP 1 Secretion.
Where [14] appears, read: Homo sapiens, IC50 / EC50; endothelial tube area, ADSC/ECFC co-culture; read-out: Anti-Angiogenesis.
Setting [15] is: Rattus norvegicus, INS-1E, read-out: Insulin Secretion.
The mark [16] stands for this setting: Homo sapiens, HCT-116, HCT116 pretreated with GSK3b inhibitor, read-out: GSK3b inh pretreated_Viability ATP HCT116.
Where [17] appears, read: Homo sapiens, SW480, basal, SW480, read-out: Basal_Viability ATP SW480.
[18] abbreviates: Homo sapiens, NCI-H716, read-out: GLP 1 Secretion.
Setting [19] is: Homo sapiens, HCT-116, basal, HCT116, read-out: Basal_Viability ATP HCT116.
Setting [20] is: Homo sapiens; read-out: Anti-Angiogenesis.
[21] abbreviates: Homo sapiens, SW480, 72 h, Table 2, 72 h, Cell TiterGlo, non-adherent, 20 coded, read-out: SW480 viab. IC50.
The mark [22] stands for this setting: Homo sapiens, HCT-116, 72 h, read-out: HCT-116 viab. IC50, Table 2, basal, 72 h, Cell TiterGlo, non-adherent, 20 coded.
Where [23] appears, read: Mus musculus, C2C12, Table 2, C2C12, […], 20 / 20.1 coded, read-out: Wnt pot. EC50.
[24] abbreviates: Homo sapiens, DLD-1, basal, read-out: Basal_Viability ATP DLD-1.
Where [25] appears, read: Homo sapiens, SW480, basal, read-out: Basal_Viability ATP SW480.
Setting [26] is: Homo sapiens, HCT-116, basal, read-out: Basal_Viability ATP HCT116.
Where [27] appears, read: Homo sapiens, HeLa, IC50 / EC50, HeLa.
The mark [28] stands for this setting: Homo sapiens, HCT-116, read-out: HCT-116 (GSK3β) viab. IC50, Table 2, GSK3β inhibitor LY2090314 20 nM, 72 h, Cell TiterGlo, 20 coded.

Consider `N=C(N)NN=C(/C=C/c1ccc([N+](=O)[O-])o1)/C=C/c1ccc([N+](=O)[O-])o1` [Nitrovin], for which the IC50 was 1.35 µM in the assay with SNU-C1 (basal, SNU-C1, read-out: Basal_Viability ATP SNU-C1); above 20 µM in the assay on DLD-1 (basal, DLD-1, read-out: Basal_Viability ATP DLD-1); 0.0237 µM in [1] (HCT116 pretreated with GSK3b inhibitor, read-out: GSK3b inh pretreated_Viability ATP HCT116); 0.0076 µM with SW480 (basal, SW480, read-out: Basal_Viability ATP SW480); 0.136 µM with HCT116 (basal, HCT116, read-out: Basal_Viability ATP HCT116); 0.0128 µM with RKO (basal). The IC50 in [2] (S2 Table; module primary assay; 20 = no response at highest concentration, 20.1 = inactive in single concentration testing; read-out: Anti-Angiogenesis) was above 10 µM. In addition, the EC50 in the assay with INS-1E cells (S2 Table, module primary assay, 20 / 20.1 codes per legend, read-out: Insulin Secretion) is above 10 µM; with NCI-H716 cells (S2 Table, module primary assay, 20 / 20.1 codes per legend, read-out: GLP 1 Secretion), above 10 µM; in the assay on HeLa cells (S2 Table, HeLa, 20 = no response at highest concentration) it was above 10 µM; in assay [3] (read-out: Wnt Pathway) it was 0.372 µM.

As for `CN(Cc1cnc2nc(N)nc(N)c2n1)c1ccc(C(=O)N[C@@H](CCC(=O)O)C(=O)O)cc1` [methotrexate, reference compound], the IC50 is above 20 µM in the assay on SNU-C1 (Homo sapiens, SNU-C1, 72 h, Table 2, 72 h, Cell TiterGlo, non-adherent, 20 coded, read-out: SNU-C1 viab. IC50); 0.7 µM with DLD-1 (setting [4]); 0.704 µM in the assay with DLD-1 (setting [5]); above 10 µM in assay [2] (setting [9]). Also, the EC50 was above 10 µM with INS-1E cells (setting [6]); above 10 µM with NCI-H716 cells (setting [7]); above 10 µM with HeLa cells (setting [8]); 0.0116 µM in assay [3] (setting [10]); 0.012 µM in assay [3] (Mus musculus, C2C12, read-out: Wnt pot. EC50).

With `COc1cccc2c1C(=O)c1c(O)c3c(c(O)c1C2=O)C[C@@](O)(C(=O)CO)C[C@@H]3O[C@H]1C[C@H](N2CCO[C@H](OC)C2)[C@H](O)[C@H](C)O1` [nemorubicin], the IC50 amounted to 0.001 µM in the assay on DLD-1 (Homo sapiens, DLD-1, read-out: Basal_Viability ATP DLD-1); 0.001 µM in [1] (setting [12]); 0.001 µM in the assay on SW480 (Homo sapiens, SW480, read-out: Basal_Viability ATP SW480); 0.001 µM with RKO (Homo sapiens); 0.003 µM in [2] (setting [14]); 0.001 µM with Colo320. Besides, the EC50 in the assay with INS-1E cells (setting [11]) is above 10 µM; with NCI-H716 cells (setting [13]), above 10 µM; in the assay with HeLa cells (Homo sapiens, IC50 / EC50, HeLa) it was above 10 µM; in assay [3] (Mus musculus, IC50 / EC50, C2C12 beta-catenin translocation, read-out: Wnt Pathway) it was 0.0135 µM.

`CC(=O)Oc1ccccc1C(=O)Nc1ncc([N+](=O)[O-])s1` [nitazoxanide]: the IC50 in the assay with DLD-1 (setting [5]) amounted to 3.09 µM; in [1] (setting [16]) it was 2.46 µM; in the assay with SW480 (setting [17]), 3.03 µM; in the assay on HCT116 (setting [19]), 2.81 µM; in assay [2] (setting [20]), 2.06 µM. The EC50 in the assay on INS-1E cells (setting [15]) is above 10 µM; in the assay with NCI-H716 cells (setting [18]), above 10 µM; with HeLa cells (setting [8]), above 10 µM; in assay [3] (Mus musculus, C2C12, S2 Table, module primary assay, 20 / 20.1 codes per legend, read-out: Wnt Pathway), above 10 µM.

`CCCCc1ccc2[nH]c(NC(=O)OC)nc2c1` [parbendazole]: the IC50 in the assay with DLD-1 (setting [5]) was 0.64 µM; in [1] (setting [16]) it was 0.105 µM; in the assay with SW480 (setting [17]) it was 1.99 µM; in the assay with HCT116 (setting [19]) it was 0.118 µM; in assay [2] (setting [20]), 0.053 µM. Also, the EC50 with INS-1E cells (setting [15]) is above 10 µM; in the assay with NCI-H716 cells (setting [18]), above 10 µM; in the assay with HeLa cells (setting [8]), 0.0106 µM; in assay [3] (setting [10]), 0.0336 µM.

With `Cc1ccc(Nc2nccc(N(C)c3ccc4c(C)n(C)nc4c3)n2)cc1S(N)(=O)=O` [pazopanib, reference compound], the IC50 in the assay with DLD-1 (setting [4]) was above 20 µM; in assay [1] (Homo sapiens, HCT-116, 72 h, read-out: HCT-116 (GSK3β) viab. IC50), above 20 µM; in the assay on SW480 (setting [21]), 5.7 µM; with SW480 (setting [17]), 5.68 µM; in the assay on HCT116 (setting [22]), above 20 µM; in [2] (setting [9]), 0.047 µM. The IC50 in assay [2] (setting [20]) came out at 0.0465 µM. For the same molecule, the EC50 (in the assay with INS-1E cells (setting [6]); with NCI-H716 cells (setting [7]); in the assay with HeLa cells (setting [8]); in assay [3] (setting [23])) was above 10 µM throughout. In addition, the “activity in the Wnt potentiation module (in words)” value in assay [3] was “None of these agents, however, possessed appreciable activity”.

For `NCCNc1ccc(NCCN)c2c1C(=O)c1ccncc1C2=O` [pixantrone], the IC50 is above 20 µM in the assay with DLD-1 (setting [24]); 14.6 µM in [1] (setting [12]); above 20 µM in the assay on SW480 (setting [25]); above 20 µM in the assay on HCT116 (setting [26]); 0.0465 µM in [2] (setting [14]). Also, the EC50 with INS-1E cells (setting [11]) was above 10 µM; in the assay on NCI-H716 cells (setting [13]), above 10 µM; in the assay with HeLa cells (setting [27]), 0.0483 µM; in [3] (Mus musculus, C2C12, IC50 / EC50, C2C12 beta-catenin translocation, read-out: Wnt Pathway) it was above 10 µM.

Turning to `CC(C)=CCC/C(C)=C/CC/C(C)=C/C(=O)OCC(=O)[C@@]1(O)CC[C@H]2[C@@H]3CCC4=CC(=O)C=C[C@]4(C)[C@H]3[C@@H](O)C[C@@]21C` [prednisolone farnesil], the IC50 in the assay on DLD-1 (read-out: Basal_Viability ATP DLD-1) turned out to be 7.93 µM; in assay [1] (read-out: GSK3b inh pretreated_Viability ATP HCT116) it was 7.19 µM; with SW480 (read-out: Basal_Viability ATP SW480), 8.11 µM; in the assay with HCT116 (read-out: Basal_Viability ATP HCT116), 5.74 µM; in assay [2] (read-out: Anti-Angiogenesis), 3.34 µM. Also, the EC50 (in the assay on INS-1E cells (read-out: Insulin Secretion); with NCI-H716 cells (read-out: GLP 1 Secretion); in the assay with HeLa cells; in [3] (read-out: Wnt Pathway)) was above 10 µM in each case.

Consider `CCN(CC)CCNC(=O)c1c(C)[nH]c(/C=C2\C(=O)Nc3ccc(F)cc32)c1C` [sunitinib, reference compound], for which the IC50 turned out to be 1.6 µM in the assay with DLD-1 (setting [4]); 1.63 µM in the assay on DLD-1 (setting [24]); 0.36 µM in assay [1] (setting [28]); 0.361 µM in [1] (setting [12]); 2.8 µM in the assay with SW480 (setting [21]); 2.76 µM in the assay with SW480 (setting [25]). The IC50 in the assay on HCT116 (setting [22]) amounted to 2.3 µM; in the assay with HCT116 (setting [26]), 2.31 µM; in assay [2] (Homo sapiens, read-out: Anti-Angio IC50) it was 0.025 µM; in assay [2] (Homo sapiens, read-out: Anti-Angiogenesis) it was 0.0254 µM. Besides, the EC50 with INS-1E cells (setting [6]) was above 20 µM; with NCI-H716 cells (setting [7]), above 10 µM; with HeLa cells (setting [27]), above 10 µM; in [3] (setting [23]), above 10 µM.

As for `Clc1ccc(Nc2nnc(Cc3ccncc3)c3ccccc23)cc1` [vatalanib, reference compound], the IC50 with DLD-1 (setting [4]) was above 20 µM; in assay [1] (setting [28]) it was 10.5 µM; in [1] (setting [16]) it was 10.5 µM; in the assay with SW480 (setting [21]), 19.5 µM; in the assay on SW480 (setting [17]), 19.5 µM; in the assay on HCT116 (setting [22]), above 20 µM. For the same molecule, the IC50 in assay [2] (setting [9]) is 0.11 µM; in assay [2] (setting [20]), 0.111 µM. Moreover, the EC50 (in the assay with INS-1E cells (setting [6]); in the assay on NCI-H716 cells (setting [7]); with HeLa cells (setting [8]); in assay [3] (setting [23])) was above 10 µM each time. Moreover, the “G2/M IC50 / EC50” value with HeLa cells was 20 (values shown as 20 indicate that the compound was tested in concentration-response and showed no response at the highest concentration tested (e.g. IC50 > 20 μM)). Also, the “activity in the Wnt potentiation module (in words)” value in [3] is “None of these agents, however, possessed appreciable activity”.
